Measurements: ChEMBL document CHEMBL1122276, “6-Chloro-2,3,4,5-tetrahydro-3-methyl-1H-3-benzazepine: a potent and selective antagonist of alpha 2-adrenoceptors” (J Med Chem, 1983)

Tests used:
Canis familiaris = organism: Canis familiaris; assay: Effective concentration of 100% release of [3H]norepinephrine from electrically stimulated dog splenic arteries; format: functional, Canis lupus familiaris
Cavia porcellus [1] = organism: Cavia porcellus; assay: Dissociation constant (KB) for competitive inhibition of BHR 920 induced depression of neurotransmission in isolated guinea pig atrium; format: functional; details: Cardiac atrium
Oryctolagus cuniculus = organism: Oryctolagus cuniculus; assay: Ability to block the norepinephrine constrictor response in the rabbit ear artery in a competitive fashion; format: functional
Cavia porcellus [2] = organism: Cavia porcellus; assay: Concentration-related inhibition of response to sympathetic nerve stimulation in isolated guinea pig atrium mediated by alpha-2 receptors; format: functional; details: Cardiac atrium

| EC50 (Cavia porcellus [2]) [nM] | SMILES | EC100 (Canis familiaris) [nM] | Kb (Cavia porcellus [1]) [nM] | Kb (Oryctolagus cuniculus) [nM] |
| --- | --- | --- | --- | --- |
| – | CN1CCc2cccc(Cl)c2CC1.Cl | 210 | 17 | 900 |
| 100 | C=CCN1CCc2nc(N)sc2CC1 [TALIPEXOLE] | – | – | – |
